Measured values from ChEMBL document CHEMBL3044894, “QSAR studies on a number of pyrrolidin-2-one antiarrhythmic arylpiperazinyls” (2012).

What follows are compounds tested on Rattus norvegicus (assay: Antiarrhythmic activity in anaesthetized rat assessed as inhibition of adrenaline-induced arrhythmia).
Assay type: functional, Heart

Q: Which pED50 does the source give for `O=C1N(CC(O)CN2CCN(c3ccccc3)CC2)CCC1(c1ccccc1)c1ccccc1` (stereo not drawn) here?
A: The pED50 was 2.38.

Q: For `Cc1ccccc1N1CCN(CC(O)CN2CCCC2=O)CC1` (stereo not drawn), which pED50 is on record?
A: Its pED50 is 1.55.

Q: For `Cc1ccccc1N1CCN(CC(O)CN2CCC(c3ccccc3)(c3ccccc3)C2=O)CC1` (stereo not drawn), which pED50 is on record?
A: Its pED50 is 2.53.

Q: With `CC(C)C(=O)OC(CN1CCN(c2ccccc2)CC1)CN1CCCC1=O` (stereo not drawn) as the compound, how does the pED50 read?
A: Its pED50 is 1.88.

Q: `O=C1CCCN1CC(O)CN1CCN(c2ccccc2C(F)(F)F)CC1` (stereo not drawn) was tested. Which pED50 did it give?
A: The pED50 was 1.31.

Q: How did the pED50 turn out when `CCNC(=O)OC(CN1CCN(c2ccccc2OC)CC1)CN1CCCC1=O` (stereo not drawn) was run?
A: The pED50 was 1.92.

Q: With `COc1ccc(Cl)cc1N1CCN(CC(O)CN2CCCC2=O)CC1` (stereo not drawn) as the compound, how does the pED50 read?
A: Its pED50 is 1.48.

Q: For `COc1ccccc1N1CCN(CC(O)CN2CCC(c3ccccc3)(c3ccccc3)C2=O)CC1` (stereo not drawn), which pED50 is on record?
A: Its pED50 is 2.37.

Q: For `O=C1CCCN1CCCN1CCN(c2ccccc2Cl)CC1`, which pED50 is on record?
A: Its pED50 is 1.8.

Q: How did the pED50 turn out when `COc1ccccc1N1CCN(CC(CN2CCCC2=O)OC(=O)NC(C)C)CC1` (stereo not drawn) was run?
A: The pED50 was 2.19.

Q: For `CC(C)NC(=O)OC(CN1CCN(c2ccccc2Cl)CC1)CN1CCCC1=O` (stereo not drawn), which pED50 is on record?
A: Its pED50 is 2.

Q: For `CCCNC(=O)OC(CN1CCN(c2ccccc2)CC1)CN1CCCC1=O` (stereo not drawn), which pED50 is on record?
A: The pED50 was 1.52.

Q: For `COc1cccc(N2CCN(CC(O)CN3CCCC3=O)CC2)c1` (stereo not drawn), which pED50 is on record?
A: Its pED50 is 1.64.

Q: For `O=C1CCCN1CCCN1CCN(c2ccccc2)CC1`, which pED50 is on record?
A: The pED50 was 2.01.

Q: For `O=C1CCCN1CC(O)CN1CCN(c2ccccc2O)CC1` (stereo not drawn), which pED50 is on record?
A: The pED50 was 2.23.

Q: How did the pED50 turn out when `O=C1CCCN1CCCN1CCN(c2ccccc2O)CC1` was run?
A: The pED50 was 1.36.

Q: How did the pED50 turn out when `O=C1CCCN1CC(O)CN1CCN(c2ccc(F)cc2F)CC1` (stereo not drawn) was run?
A: The pED50 was 1.54.

Q: `O=C1CCCN1CC(O)CN1CCN(c2ccc(Cl)cc2)CC1` (stereo not drawn) was tested. Which pED50 did it give?
A: Its pED50 is 1.4.

Q: For `O=C(NCc1ccccc1)OC(CN1CCN(c2ccccc2)CC1)CN1CCCC1=O` (stereo not drawn), which pED50 is on record?
A: The pED50 was 1.47.

Q: For `CCNC(=O)OC(CN1CCN(c2ccccc2)CC1)CN1CCCC1=O` (stereo not drawn), which pED50 is on record?
A: Its pED50 is 1.66.

Q: Which pED50 does the source give for `CCCNC(=O)OC(CN1CCN(c2ccccc2OC)CC1)CN1CCCC1=O` (stereo not drawn) here?
A: Its pED50 is 1.52.

Q: Which pED50 does the source give for `CCOc1ccccc1N1CCN(CCCN2CCCC2=O)CC1` here?
A: The pED50 was 2.52.

Q: How did the pED50 turn out when `O=C1N(CC(O)CN2CCN(c3ccccc3C(F)(F)F)CC2)CCC1(c1ccccc1)c1ccccc1` (stereo not drawn) was run?
A: Its pED50 is 2.13.

Q: Which pED50 does the source give for `CCOc1ccccc1N1CCN(CC(O)CN2CCC(c3ccccc3)(c3ccccc3)C2=O)CC1` (stereo not drawn) here?
A: Its pED50 is 2.66.

Q: `O=C1CCCN1CC(O)CN1CCN(c2ccccc2)CC1` (stereo not drawn) was tested. Which pED50 did it give?
A: Its pED50 is 1.6.

Q: With `COc1ccccc1N1CCN(CCCN2CCCC2=O)CC1` as the compound, how does the pED50 read?
A: Its pED50 is 1.79.

Q: For `O=C1CCCN1CCCN1CCN(c2ccccc2F)CC1`, which pED50 is on record?
A: The pED50 was 1.54.

Q: With `O=C1CCCN1CCCN1CCN(c2cccc(C(F)(F)F)c2)CC1` as the compound, how does the pED50 read?
A: Its pED50 is 1.45.

Q: How did the pED50 turn out when `COc1ccccc1N1CCN(CC(O)CN2CCCC2=O)CC1` (stereo not drawn) was run?
A: Its pED50 is 1.43.

Q: With `CC(C)Oc1ccccc1N1CCN(CC(O)CN2CCCC2=O)CC1` (stereo not drawn) as the compound, how does the pED50 read?
A: Its pED50 is 1.77.

Q: How did the pED50 turn out when `O=C1CCCN1CC(O)CN1CCN(c2ccccc2F)CC1` (stereo not drawn) was run?
A: Its pED50 is 1.79.

Q: For `CCCC(=O)OC(CN1CCN(c2ccccc2OC(C)C)CC1)CN1CCCC1=O` (stereo not drawn), which pED50 is on record?
A: The pED50 was 1.77.

Q: `CCOc1ccccc1N1CCN(CC(O)CN2CCCC2=O)CC1` (stereo not drawn) was tested. Which pED50 did it give?
A: Its pED50 is 1.97.
